Test results from patent US20260293949A1, “CARBONATION SENSATION IMPARTING OR ENHANCING AGENT” (TAKASAGO INTERNATIONAL CORPORATION, priority 2022, published 2026).
“Also recorded” adds a separate entry of the source.

Legend:
[1] = Sensory evaluation of fizziness enhancement in cider-flavored carbonated beverage; assay type: in vivo; settings: for Fizziness enhancement evaluation result: average score of seven panelists, 1 to 5
Experimental: (§1) In the following Examples, the action and effect were verified using a value obtained by calculating an average score of scores for imparting or enhancing fizziness by sensory evaluation conducted by specialized panelists. The expression “1 point” in the evaluation is the evaluation in the case where no component is added at all (no addition).
Diethyl sebacate was separately added to “Mitsuya Cider (registered trademark) Zero Strong (manufactured by Asahi Soft Drinks Co., Ltd.)” so as to reach the concentrations shown in Table 6 below, and sensory evaluation was performed by seven specialized panelists to determine the extent to which fizziness was enhanced as compared with a control in which diethyl sebacate was not added.

[2] = Sensory evaluation of fizziness enhancement in carbonated grapefruit flavored Chu-Hi; assay type: in vivo; settings: for Fizziness enhancement evaluation result: carbonated Chu-Hi, average score of seven panelists, 1 to 5
[3] = Sensory evaluation of carbonation sensation imparting in black tea beverage with fruit juice; assay type: in vivo; settings: for Carbonation sensation imparting evaluation result: average score of seven panelists
Experimental: as §1
Diethyl sebacate was separately added to “Afternoon Tea Apple Tea Plus (registered trademark) (manufactured by Kirin Beverage Co., Ltd.)” so as to reach the concentrations shown in Table 9 below, and sensory evaluation was performed by seven specialized panelists to determine the extent to which fizziness was imparted as compared with a control in which diethyl sebacate was not added.

[4] = Sensory evaluation of carbonation sensation imparting in cola-flavored compressed tablet candy; assay type: in vivo; settings: for Carbonation sensation imparting evaluation result: compressed tablet candy, average score of six panelists, 1 to 5
Experimental: as §1
Diethyl sebacate was separately added to a cola-flavored compressed tablet candy prepared according to the formulation shown in Table 14 using a pestle with a diameter of 7 mm, so as to reach a concentration shown in Table 15 below, and sensory evaluation was performed by six panelists to determine the extent to which fizziness was imparted as compared with a control in which diethyl sebacate was not added.

[5] = Sensory evaluation of carbonation sensation imparting in grape-flavored mouthwash; assay type: in vivo; settings: for Carbonation sensation imparting evaluation result: grape-flavored mouthwash, average score of five panelists, 1 to 5
Experimental: as §1
Diethyl sebacate was separately added to grape-flavored mouthwash prepared according to the formulation shown in Table 18 so as to reach a concentration shown in Table 19 below, and sensory evaluation was performed by five panelists to determine the extent to which fizziness was imparted as compared with a control in which diethyl sebacate was not added.

[6] = biological target: T1, human TRPV1 (Homo sapiens, UniProt Q8NER1); assay: Evaluation of human TRPV1 activity in stably expressing cells (Fluo 4-AM calcium fluorescence); assay type: cell-based; settings: human TRPV1 stably expressing Flp-In 293 cells; fluorescence 485/525 nm, 27° C.
T1 construct: doxycycline-inducible Flp-In T-REx 293 cells; Fluo-4 calcium assay
From the text: The full-length human TRPA1 gene (GenBank Accession Number: NM_007332) was amplified from plasmid pFN21AB7348 (manufactured by Kazusa DNA Research Institute), and the full-length human TRPV1 gene (GenBank Accession Number: NM_018727) was amplified from pFN21AE2418 (manufactured by Kazusa DNA Research Institute) using PCR. The obtained PCR product was subcloned into pcDNA5/FRT/TO (manufactured by ThermoFisher Scientific), and then introduced into Flp-In 293 cells (manufactured by Thermo Fisher Scientific) using a Flp-In T-REX system (manufactured by Thermo Fisher Scientific) to prepare a human TRPA1 stably expressing cell line and a human TRPV1 stably expressing cell line […]
After replacing the culture medium with buffer solution, fluorescent calcium indicator Fluo 4-AM (manufactured by Dojindo Laboratories) was added and incubated at 37° C. for 1 hour. After replacing the culture solution with buffer solution again, the microplate was set to a fluorescence microplate reader FlexStation 3 (manufactured by Molecular Devices, LLC.). Diethyl sebacate was added at various concentrations at an internal temperature of 27° C., and the fluorescence intensity at a wavelength of 525 nm when excited at a wavelength of 485 nm was measured. […]

[7] = carbonated grapefruit flavored Chu-Hi

T1 sequence (Q8NER1 whole entry): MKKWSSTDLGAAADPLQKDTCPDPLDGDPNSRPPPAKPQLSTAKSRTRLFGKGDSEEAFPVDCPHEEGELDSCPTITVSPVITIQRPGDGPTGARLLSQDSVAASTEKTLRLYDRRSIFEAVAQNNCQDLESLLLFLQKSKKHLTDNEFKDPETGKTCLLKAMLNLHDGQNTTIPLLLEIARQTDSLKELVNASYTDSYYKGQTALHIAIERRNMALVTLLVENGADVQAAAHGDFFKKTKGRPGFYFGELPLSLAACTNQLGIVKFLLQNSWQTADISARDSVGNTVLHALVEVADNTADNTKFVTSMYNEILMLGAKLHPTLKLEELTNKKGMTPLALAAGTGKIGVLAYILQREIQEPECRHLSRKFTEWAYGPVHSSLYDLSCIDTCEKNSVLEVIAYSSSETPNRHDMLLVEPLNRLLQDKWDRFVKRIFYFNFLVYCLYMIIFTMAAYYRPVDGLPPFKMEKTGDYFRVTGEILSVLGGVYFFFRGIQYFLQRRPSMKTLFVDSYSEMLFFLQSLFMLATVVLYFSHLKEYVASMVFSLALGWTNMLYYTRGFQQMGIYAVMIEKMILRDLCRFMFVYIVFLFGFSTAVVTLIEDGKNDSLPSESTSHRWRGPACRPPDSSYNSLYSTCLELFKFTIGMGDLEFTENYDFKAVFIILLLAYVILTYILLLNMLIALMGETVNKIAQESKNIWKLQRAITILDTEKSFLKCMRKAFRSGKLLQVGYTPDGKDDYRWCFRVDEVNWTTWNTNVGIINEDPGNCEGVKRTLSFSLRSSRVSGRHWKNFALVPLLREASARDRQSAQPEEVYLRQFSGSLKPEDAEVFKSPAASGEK

## CCOC(=O)CCCCCCCCC(=O)OCC [Diethyl sebacate, diethyl sebacate]
[1]
  amelioration of mouthfeel (in words): effect of ameliorating the mouthfeel was also confirmed
  fizziness enhancement (in words): fizziness of the cider-flavored carbonated beverage can be enhanced
[1]; 0.1 ppm
  Fizziness enhancement evaluation result: 1.3 points
[1]; 0.3 ppm
  Fizziness enhancement evaluation result: 1.9 points
[1]; 1 ppm
  Fizziness enhancement evaluation result: 3.7 points
[1]; 5 ppm
  Fizziness enhancement evaluation result: 3.9 points
[1]; 10 ppm
  Fizziness enhancement evaluation result: 3.7 points
[1]; 20 ppm
  Fizziness enhancement evaluation result: 3.6 points
[1]; 50 ppm
  Fizziness enhancement evaluation result: 3.3 points
[1]; 100 ppm
  Fizziness enhancement evaluation result: 1.1 points
[2]; 0.1 ppm
  Fizziness enhancement evaluation result: 1.1 points
[2]; 0.3 ppm
  Fizziness enhancement evaluation result: 1.7 points
[2]; 1 ppm
  Fizziness enhancement evaluation result: 4.0 points
[2]; 5 ppm
  Fizziness enhancement evaluation result: 4.0 points
[2]; 10 ppm
  Fizziness enhancement evaluation result: 3.9 points
[2]; 20 ppm
  Fizziness enhancement evaluation result: 3.4 points
[2]; 50 ppm
  Fizziness enhancement evaluation result: 2.6 points
[2]; 100 ppm
  Fizziness enhancement evaluation result: 1.3 points
[2]; [7]
  amelioration of mouthfeel (in words): effect of ameliorating the mouthfeel was also confirmed
  fizziness enhancement (in words): fizziness of the carbonated grapefruit flavored Chu-Hi can be enhanced
[3]
  amelioration of mouthfeel (in words): effect of ameliorating the mouthfeel was also confirmed
[3]; 0.1 ppm, 1 (almost no fizziness) to 5 (extremely imparted)
  Carbonation sensation imparting evaluation result: 1.1 points
[3]; 0.3 ppm, 1 to 5
  Carbonation sensation imparting evaluation result: 1.3 points
[3]; 1 ppm, 1 to 5
  Carbonation sensation imparting evaluation result: 1.9 points
[3]; 5 ppm, 1 to 5
  Carbonation sensation imparting evaluation result: 2.7 points
[3]; 10 ppm, 1 to 5
  Carbonation sensation imparting evaluation result: 2.9 points
[3]; 20 ppm, 1 to 5
  Carbonation sensation imparting evaluation result: 1.7 points
[3]; 50 ppm, 1 to 5
  Carbonation sensation imparting evaluation result: 1.7 points
[3]; 100 ppm, 1 to 5
  Carbonation sensation imparting evaluation result: 1.1 points
[3]; contains no carbon dioxide
  fizziness imparting (in words): fizziness can be imparted to a black tea beverage with fruit juice
[4]; 0.1 ppm
  Carbonation sensation imparting evaluation result: 1.5 points
[4]; 1 ppm
  Carbonation sensation imparting evaluation result: 2.2 points
[4]; 10 ppm
  Carbonation sensation imparting evaluation result: 2.5 points
[4]; 100 ppm
  Carbonation sensation imparting evaluation result: 4.0 points
[4]; 1000 ppm
  Carbonation sensation imparting evaluation result: 3.0 points
[4]; 10000 ppm
  Carbonation sensation imparting evaluation result: 1.5 points
[4]; 20000 ppm
  Carbonation sensation imparting evaluation result: 1.2 points
[4]; compressed tablet candies
  amelioration of mouthfeel (in words): effect of ameliorating the mouthfeel was also confirmed
  fizziness imparting (in words): fizziness can be imparted to compressed tablet candies
[5]; 0.1 ppm
  Carbonation sensation imparting evaluation result: 1.8 points
[5]; 1 ppm
  Carbonation sensation imparting evaluation result: 2.2 points
[5]; 5 ppm
  Carbonation sensation imparting evaluation result: 2.8 points
[5]; 10 ppm
  Carbonation sensation imparting evaluation result: 3.4 points
[5]; 50 ppm
  Carbonation sensation imparting evaluation result: 4.0 points
[5]; 100 ppm
  Carbonation sensation imparting evaluation result: 3.8 points
[5]; 500 ppm
  Carbonation sensation imparting evaluation result: 3.0 points
[5]; mouthwash
  amelioration of mouthfeel (in words): effect of ameliorating the mouthfeel was also confirmed
  fizziness imparting (in words): fizziness can be imparted to the mouthwash
[6]
  TRPV1 activity: high TRPA1 activity and TRPV1 activity; also recorded: respond
